# Results as given in patent US20250312300A1, “BRIDGED BICYCLIC CARBOXYLIC ACIDS FOR TREATING OSTEOSARCOMA AND EWING SARCOMA” (UEA ENTERPRISES LIMITED, priority 2022, published 2025).
# Entries after “also recorded” stand apart in the source; their conditions may differ.
# Tests used:
# [1] = test system: 143B+GFP-Luc (OS) cells; assay: PBC xenograft mouse model, OS; assay type: in vivo, BALB/c nude mice
# Description: (§1) Mice. The University of Sheffield Animal Welfare and Ethics Committee approved the animal experiments. Experiments were performed under licence in accordance with the UK Home Office guidelines and under the Animals (Scientific Procedures) Act 1986. Six- to seven-week-old female BALB/c nude mice (Charles River Laboratories) were acclimatised for one week prior to in vivo study. Mice were housed with a 12 h light-dark cycle at 22° C. and had free access to 2018 Teklad global 18% protein rodent diet containing 1.01% calcium (Harlan) and water. Mice were anesthetised by isoflurane inhalation before implantation with 2.5×10^5 143B+GFP-Luc (OS) cells or 5×10^5 TC71+GFP-Luc (ES) cells in 20 μl PBS onto the tibial surface. Mice were matched by weight and initial IVIS signal and then randomly divided into groups (n=8 mice/group). CADD522 treatment commenced the day after tumours became visible. Mice received either vehicle control (PBS and DMSO) or CADD522 (25 mg/kg) by IP injection five times per week. Tumours were measured by callipers throughout the study twice per week blinded. Two perpendicular measurements were taken and volume calculated by the formula V=0.523×L×(S)^2 where L and S refer to the largest and smallest measurement. Mice were treated until the palpable tumour reached the permissible 12 mm diameter limit. At the end of the procedure ex vivo imaging of mouse internal organs was performed to detect metastasis. Prior to killing, mice were injected subcutaneously with 150 mg/kg XenoLight D-Luciferin substrate (Perkin Elmer) that was left to disperse for a minimum of 5 m. Dissected organs were then imaged using the IVIS Lumina II. Mice legs and lungs were dissected and fixed in 10% formalin for further analysis.
# Micro-CT. Fixed tibiae were scanned using a SkyScan 1172 desktop micro-CT machine (Bruker) at 8 um resolution with the X-ray source operating at 50 kV, 200 uA and using a 0.5 mm aluminium filter. Images were captured every 0.7°. Scanned images were reconstructed using Skyscan NRecon software v1.6.9 (Bruker). The region of interest (ROI) for the total bone volume was selected to include both the tibia and fibula and was determined at the top of the bone as soon as the tibia enters the image to the lower point where the tibia and fibula meet.
# Histology. Bones were fixed in neutral buffered formalin for 48 h after which they were transferred to 70% ethanol. Bones were then decalcified in 10% EDTA, embedded in paraffin and 5 μm sections produced. Sections were de-waxed in xylene, rehydrated through graded alcohols and stained in haematoxylin (VWR) and eosin. The sections were dehydrated through graded alcohols and coverslips were mounted in DPX and imaged using Olympus BX51 microscope (Olympus Life Sciences) and Pannoramic 250 Flash III slide scanner (3[…]).
# Statistics. For statistical tests p=<0.05 was considered as statistically significant. Proliferation data is reported for each experimental repeat (n=3). Data was tested for normality by D'Agostino Pearson Omnibus test and analysed in GraphPad Prism v9 with p=<0.05 regarded as significant. A one-way ANOVA was used to identify any differences in proliferation across the concentration range tested compared to the untreated control. A post-hoc Dunnett's multiple comparison was then used to determine which concentration impacted proliferation compared to the untreated control. […]
# [2] = Observed toxicity in treated PBC model mice; assay type: in vivo; conditions: 25 mg/kg over the study period
# Description: as §1, with “At the end of the procedure ex vivo imaging of mouse internal organs was performed to detect metastasis. Prior to killing, mice were injected subcutaneously with 150 mg/kg XenoLight D-Luciferin substrate (Perkin Elmer) that was left to disperse for a minimum of 5 m. Dissected organs were then imaged using the IVIS Lumina II. Mice legs and lungs were dissected and fixed in 10% formalin for further analysis.” left out
# [3] = test system: TC71 (human ES) cells; assay: Proliferation assay (WST-1), ES cells; assay type: cell-based; conditions: 100 μM CADD522, 72 h, WST-1, relative to control
# Description: (§2) Cell lines. 143B (human OS) and TC71 (human ES) cells were obtained from ATCC. Cells were authenticated by STR profiling and were cultured in DMEM/F-12 (Thermo Fisher Scientific) or IMDM (Thermo Fisher Scientific) containing 1% (v/v) insulin transferrin selenium, 10% (v/v) FBS and 1% (v/v) penicillin/streptomycin. Medium was refreshed every other day and cells were maintained at 37° C. in 5% CO2. For the animal experiments 143B and TC71 cells were modified by transfecting with the GFP-luciferase tagged LVP02 lentivirus (AMSBIO). Adding the luciferase tag had no effect on cell phenotype.
# (§3) Proliferation assays. 1×10^3 cells in 100 μL of medium were seeded per well into 96-well plates. PBS was added to outer wells to prevent evaporation. All plates were incubated for 24 h at 37° C. in 5% CO2. 100 nM, 1 μM, 10 μM and 100 μM CADD522 were added from a stock concentration of 10 mM in DMSO and incubated for 72 h before measuring cell viability/proliferation using the WST-1 assay kit (Abcam) following manufacturer's instructions. Data was presented as relative to the control (appearing as −11 on x-axis), which is set to 100% viability. Experiments were performed in quadruplicates in three independent experiments.
# (§4) Statistics. […] Data was tested for normality by D'Agostino Pearson Omnibus test and analysed in GraphPad Prism v9 with p=<0.05 regarded as significant. […]
# [4] = test system: 143B (human OS) cells; assay: Proliferation assay (WST-1), OS cells; assay type: cell-based; conditions: 100 μM CADD522, 72 h, WST-1, relative to control
# Description: as §2, §3, §4
# [5] = test system: TC71+GFP-Luc (ES) cells; assay: PBC xenograft mouse model, ES; assay type: in vivo, BALB/c nude mice
# Description: as §1, with “Mice legs and lungs were dissected and fixed in 10% formalin for further analysis.” left out
# Micro-CT. […] The region of interest (ROI) for the total bone volume was selected to include both the tibia and fibula and was determined at the top of the bone as soon as the tibia enters the image to the lower point where the tibia and fibula meet. […]
# as §4
# [6] = test system: osteosarcoma and Ewing sarcoma; conditions: PMID: 20068084; cited from earlier work
# [7] = test system: osteosarcoma; conditions: at 18 weeks of treatment, PMID: 33580363; cited from earlier work
# [8] = 25 mg/kg IP, compared to controls
molecule,measurement,setting,value
"O=C(O)C1C2C=CC(C2)C1C(=O)Nc1ccc(Cl)c(Cl)c1 (stereo not shown) [CADD522, 3-(N-(3,4-dichlorophenyl)carbamoyl)-5-norbornene-2-carboxylic acid]","metastasis-free survival, OS mice","[1]; 25 mg/kg IP five times per week vs control, p=0.0091",significantly increased metastasis-free survival
same,"overall survival, OS mice","[1]; 25 mg/kg IP five times per week vs control, p=0.093",Half of OS mice receiving CADD522 treatment survived longer than the control group
same,OS tumour volume over time,"[1]; 25 mg/kg IP five times per week vs vehicle control, p=0.0072",significantly reduced tumour volume
same,histology (H&E) of OS tumours at endpoint,[1]; [8],"more densely packed, generally more vascularised and more organised (arranged in chords)"
same,"bone volume difference, tumour bearing leg vs contralateral (CL) leg (micro-CT)","[1]; OS mice, 25 mg/kg IP, in control mice difference significant (p=0.02)",no longer statistically significant
same,observed toxicity in the animals,[2],no observed toxicity
same,ES cell viability/proliferation,[3],cytotoxic; also recorded: showed cell proliferation differences
same,OS cell viability/proliferation,[4],cytotoxic effect; also recorded: significantly reduced cell proliferation
same,"overall survival, ES mice","[5]; 25 mg/kg IP five times per week vs control, p=0.043",Significantly increased overall survival
same,ES tumour volume over time,"[5]; 25 mg/kg IP five times per week vs vehicle control, p=0.0003",significantly reduced tumour volume
same,histology (H&E) of ES tumours at endpoint,[5]; [8],generally more vascularised
C/C(=C\c1csc(C)n1)[C@@H]1C[C@@H]2O[C@]2(C)CCC[C@H](C)[C@H](O)[C@@H](C)C(=O)C(C)(C)[C@@H](O)CC(=O)N1 [ixabepilone],clinical response,[6],no partial or complete responses were observed
pembrolizumab,clinical benefit,[7],no patients had clinical benefit
